Experimental data taken from patent US5039446A, “Liquid detergent with stabilized enzyme” (Genencor International, Inc., priority 1990, dated 1991).
Where two headings read alike, the source gives them in different places.

What was measured:
[1] = molecular target: subtilisin; details: inhibitor of subtilisin, read-out: inhibition constant (KI), cited from earlier work
[2] = test system: subtilisin; assay: Example 1: incubation of subtilisin with or without PBA at pH 7.5 and 37 degrees, activity measured after 1:500 dilution (succinyl-L-Ala-L-Ala-L-Pro-L-Phe-p-nitroanilide hydrolysis, 410 nm); type: biochemical; details: pH 7.5, 37 degrees celsius, even in the presence of 10 mm EDTA
Procedure: Enzyme activity was measured after a 1:500 dilution by following the hydrolysis of the substrate succinyl-L-Ala-L-Ala-L-Pro-L-Phe-P-nitroanilide. The reaction was monitored by following the release of p-nitroaniline spectrophotometrically at 410 nm. One unit of activity is defined as the amount of enzyme that produces A410/min of 1.0 at 25'C. in 0.1M Tris pH 8.6, […] substrate.

For `CC(=O)N[C@@H](CC(C)C)C(=O)N[C@@H](CC(C)C)C(=O)N[C@H](C=O)CCCNC(=N)N` [leupeptin], the Ki ([1]; listed as Leupeptin) is given as 230 µM and the Ki [1] is given as 160 µM.

For `CCCCB(O)O` [butane boronic acid], the Ki [1] is given as 7200 µM.

For `OB(O)c1ccccc1` [phenylboronic acid], the “stabilization of subtilisin (in words)” value [2] is given as “very effective agent for stabilization of subtilisin”, the Ki ([1]; listed as Phenyl boronic acid) is given as 160 µM and the Ki [1] is given as 230 µM.
